What was measured:
Assay in all cases: normalised viability (% of control), CellTiter-Blue; higher = more viable cells (about 100 = DMSO control)
MDA-MB-468 [1] = details: 100 nM; incubation time: 72 h
Protocol: (§1)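 DSRT, CellTiter-Blue viability, 72 h incubation. Signal is normalised to DMSO and benzethonium chloride controls. Value is the normalised response at dose 3.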

HDQ-P1 [2] = details: 10 nM; incubation time: 72 h
Protocol: as §1

MDA-MB-231 [3] = details: 100 nM; incubation time: 72 h
Protocol: as §1

CAL-148 [4] = details: 10 nM; incubation time: 72 h
Protocol: as §1

DU-4475 = details: 10 nM; incubation time: 72 h
Protocol: as §1

HCC1937 = details: 100 nM; incubation time: 72 h
Protocol: as §1

CAL-120 [5] = details: 100 nM; incubation time: 72 h
Protocol: as §1

SK-BR-3 [6] = details: 100 nM; incubation time: 72 h
Protocol: as §1

HCC1599 [7] = details: 100 nM; incubation time: 72 h
Protocol: as §1

MFM-223 [8] = details: 100 nM; incubation time: 72 h
Protocol: as §1

HCC1143 [9] = details: 100 nM; incubation time: 72 h
Protocol: as §1

Hs578T [10] = details: 100 nM; incubation time: 72 h
Protocol: as §1

CAL-51 = details: 10 nM; incubation time: 72 h
Protocol: as §1

MDA-MB-436 [11] = details: 100 nM; incubation time: 72 h
Protocol: as §1

BT-549 = details: 100 nM; incubation time: 72 h
Protocol: as §1

BT-474 = details: 100 nM; incubation time: 72 h
Protocol: as §1

MDA-MB-453 = details: 10 nM; incubation time: 72 h
Protocol: as §1

CAL-85-1 [12] = details: 10 nM; incubation time: 72 h
Protocol: as §1

MDA-MB-468 [13] = details: incubation time: 72 h
In short: (§2)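 Each entry is normalised viability at a single listed concentration within a series. It comes from breast cancer cell lines incubated 72 h with compound in 384-well plates, then measured with CellTiter-Blue fluorescence at 560/590 nm. Every plate was normalised between vehicle (100) and a positive kill control (0).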

HDQ-P1 [14] = details: incubation time: 72 h
In short: as §2

MDA-MB-231 [15] = details: incubation time: 72 h
In short: as §2

CAL-148 [16] = details: incubation time: 72 h
In short: as §2

CAL-120 [17] = details: incubation time: 72 h
In short: as §2

SK-BR-3 [18] = details: incubation time: 72 h
In short: as §2

HCC1599 [19] = details: incubation time: 72 h
In short: as §2

MFM-223 [20] = details: incubation time: 72 h
In short: as §2

HCC1143 [21] = details: incubation time: 72 h
In short: as §2

Hs578T [22] = details: incubation time: 72 h
In short: as §2

MDA-MB-436 [23] = details: incubation time: 72 h
In short: as §2

CAL-85-1 [24] = details: incubation time: 72 h
In short: as §2

O=c1[nH]cc(F)c(=O)[nH]1 [Fluorouracil]
Details	normalised viability [%]
BT-474	116
BT-549	107
CAL-51	105
CAL-85-1 [12]	94.7
CAL-120 [5]	111
CAL-148 [4]	108
DU-4475	97
HCC1143 [9]	97.7
HCC1599 [7]	102
HCC1937	104
HDQ-P1 [2]	103
Hs578T [10]	115
MDA-MB-231 [3]	106
MDA-MB-436 [11]	89.1
MDA-MB-453	116
MDA-MB-468 [1]	104
MFM-223 [8]	96.5
SK-BR-3 [6]	87

normalised viability [%]
Details	3 nM	10 nM	30 nM	100 nM	1000 nM	10000 nM
CAL-85-1 [24]	105	–	101	115	–	–
CAL-120 [17]	–	114	–	–	95.8	54.9
CAL-148 [16]	111	–	109	103	–	–
HCC1143 [21]	–	99.5	–	–	91	64.9
HCC1599 [19]	–	102	–	–	96.1	76.9
HDQ-P1 [14]	105	–	114	99.9	–	–
Hs578T [22]	–	111	–	–	106	55.6
MDA-MB-231 [15]	–	104	–	–	97.5	64.7
MDA-MB-436 [23]	–	103	–	–	87.8	73.5
MDA-MB-468 [13]	–	99.4	–	–	103	76
MFM-223 [20]	–	106	–	–	98.5	94.3
SK-BR-3 [18]	–	108	–	–	62.4	43.1

C[C@@]1(C(=O)Nc2ccc(F)nc2)CCCN1c1nc(Nc2cc(C3CC3)n[nH]2)c2cccn2n1
Details	normalised viability [%]
BT-474	118
BT-549	109
CAL-51	97
CAL-85-1 [12]	93.5
CAL-120 [5]	91.8
CAL-148 [4]	94
DU-4475	90.4
HCC1143 [9]	72.8
HCC1599 [7]	73.3
HCC1937	88.3
HDQ-P1 [2]	89.5
Hs578T [10]	79.4
MDA-MB-231 [3]	93.8
MDA-MB-436 [11]	92.6
MDA-MB-453	112
MDA-MB-468 [1]	101
MFM-223 [8]	88.2
SK-BR-3 [6]	92.6

normalised viability [%]
Details	3 nM	10 nM	30 nM	100 nM	1000 nM	10000 nM
CAL-85-1 [24]	92	–	75	87.9	–	–
CAL-120 [17]	–	94	–	–	63	21.1
CAL-148 [16]	88.5	–	99.1	95.1	–	–
HCC1143 [21]	–	105	–	–	64.1	45.6
HCC1599 [19]	–	92.5	–	–	55	54.1
HDQ-P1 [14]	120	–	82	73.5	–	–
Hs578T [22]	–	114	–	–	75.8	38.1
MDA-MB-231 [15]	–	90.6	–	–	46	31.4
MDA-MB-436 [23]	–	122	–	–	94.3	33.9
MDA-MB-468 [13]	–	115	–	–	61	40.7
MFM-223 [20]	–	88.5	–	–	52.6	25.3
SK-BR-3 [18]	–	99.1	–	–	71	56.4

c1ccc(C2CN3CCSC3=N2)cc1 (configuration not stated) [Tetramisole]
Details	normalised viability [%]
BT-474	109
BT-549	83
CAL-51	95.2
CAL-85-1 [12]	103
CAL-120 [5]	120
CAL-148 [4]	114
DU-4475	87.6
HCC1143 [9]	116
HCC1599 [7]	107
HCC1937	108
HDQ-P1 [2]	122
Hs578T [10]	97.5
MDA-MB-231 [3]	101
MDA-MB-436 [11]	108
MDA-MB-453	98.1
MDA-MB-468 [1]	98.8
MFM-223 [8]	92.3
SK-BR-3 [6]	104

normalised viability [%]
Details	3 nM	10 nM	30 nM	100 nM	1000 nM	10000 nM
CAL-85-1 [24]	104	–	92.8	99.4	–	–
CAL-120 [17]	–	110	–	–	112	105
CAL-148 [16]	103	–	103	125	–	–
HCC1143 [21]	–	105	–	–	118	109
HCC1599 [19]	–	102	–	–	91.2	107
HDQ-P1 [14]	117	–	116	109	–	–
Hs578T [22]	–	90.2	–	–	95.5	107
MDA-MB-231 [15]	–	96.5	–	–	91.7	104
MDA-MB-436 [23]	–	110	–	–	111	113
MDA-MB-468 [13]	–	101	–	–	106	120
MFM-223 [20]	–	101	–	–	96.4	90.3
SK-BR-3 [18]	–	107	–	–	101	105

Source: the supplement of paper PMC4862054
